Results from PubChem BioAssay AID330 (DTP/NCI, 2004).
“And” between values parts separate entries of the source, which are not always exact repeats. Identical values can stand only once. Toxic doses and inconclusive results are not listed. The calls were made as follows: active = survival T/C of 150% or more; inactive = T/C below 125% in these data.

Tested on: P388 leukemia ip, CD2F1 mice, survival T/C
Test: NCI In Vivo Anticancer Drug Screen. Data for tumor model P388 Leukemia (intraperitoneal) in CD2F1 (CDF1) mice
Settings: endpoint: median survival time, higher = longer survival
In short: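 Mice carrying the transplanted tumor received test compound or vehicle. Survival was recorded in each group, and the value is the treated-group measurement divided by that of the vehicle-treated control group.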

[1] = dose: 30.0 mg/kg/injection, schedule: Q01DX005 (ip), vehicle: Klucel (hydroxypropylcellulose) (HPC)
[2] = dose: 60.0 mg/kg/injection, schedule: Q01DX005 (ip), vehicle: Klucel (hydroxypropylcellulose) (HPC)
[3] = dose: 12.5 mg/kg/injection, schedule: Q01DX009 (ip), vehicle: saline with Tween-80
[4] = dose: 25.0 mg/kg/injection, schedule: Q01DX009 (ip), vehicle: saline with Tween-80
[5] = dose: 50.0 mg/kg/injection, schedule: Q01DX009 (ip), vehicle: saline with Tween-80
[6] = dose: 100.0 mg/kg/injection, schedule: Q01DX009 (ip), vehicle: saline with Tween-80
[7] = dose: 200.0 mg/kg/injection, schedule: Q01DX009 (ip), vehicle: saline with Tween-80
[8] = dose: 100.0 mg/kg/injection, schedule: Q01DX001 (ip), vehicle: saline with Tween-80
[9] = dose: 50.0 mg/kg/injection, schedule: Q01DX005 (ip), vehicle: saline with Tween-80
[10] = dose: 100.0 mg/kg/injection, schedule: Q01DX005 (ip), vehicle: saline with Tween-80
[11] = dose: 50.0 mg/kg/injection, schedule: Q01DX005 (ip), vehicle: Klucel (hydroxypropylcellulose) (HPC)
[12] = dose: 100.0 mg/kg/injection, schedule: Q01DX005 (ip), vehicle: Klucel (hydroxypropylcellulose) (HPC)
[13] = dose: 200.0 mg/kg/injection, schedule: Q01DX005 (ip), vehicle: Klucel (hydroxypropylcellulose) (HPC)
[14] = dose: 60.0 mg/kg/injection, schedule: Q01DX005 (ip), vehicle: saline with Tween-80
[15] = dose: 120.0 mg/kg/injection, schedule: Q01DX005 (ip), vehicle: saline with Tween-80

Measured: T/C

CNC(=S)NC(C)(C)C
inactive: dose: 15.0 mg/kg/injection, schedule: Q01DX005 (ip), vehicle: Klucel (hydroxypropylcellulose) (HPC) 97 % of control | [1] 97 % of control | [2] 103 % of control and 98 % of control

CC(Nc1ncccn1)Nc1ncccn1
inactive: [2] 107 % of control | dose: 120.0 mg/kg/injection, schedule: Q01DX005 (ip), vehicle: Klucel (hydroxypropylcellulose) (HPC) 102 % of control | dose: 240.0 mg/kg/injection, schedule: Q01DX005 (ip), vehicle: Klucel (hydroxypropylcellulose) (HPC) 111 % of control

N#CNc1nnnn1-c1ccc(-n2nnnc2NC#N)cc1 (tested in a mixture with another compound)
inactive: dose: 100.0 mg/kg/injection, schedule: Q04DX003 (ip), vehicle: Klucel (hydroxypropylcellulose) (HPC) 92 % of control | dose: 200.0 mg/kg/injection, schedule: Q04DX003 (ip), vehicle: Klucel (hydroxypropylcellulose) (HPC) 91 % of control | dose: 400.0 mg/kg/injection, schedule: Q04DX003 (ip), vehicle: Klucel (hydroxypropylcellulose) (HPC) 90 % of control

CN1C(=O)Cn2c(nn(CCN3CCOCC3)c(=O)c2=O)-c2cc(Cl)ccc21
inactive: dose: 50.0 mg/kg/injection, schedule: Q01DX009 (ip), vehicle: saline 99 % of control | dose: 100.0 mg/kg/injection, schedule: Q01DX009 (ip), vehicle: saline 102 % of control | dose: 200.0 mg/kg/injection, schedule: Q01DX009 (ip), vehicle: saline 105 % of control

CCOC(=O)C1(C(=O)OCC)COC(C)(C)OC1
inactive: [3] 105 % of control | [4] 101 % of control and 97 % of control | [5] 102 % of control and 106 % of control | [6] 106 % of control and 108 % of control | dose: 100.0 mg/kg/injection, schedule: Q04DX003 (ip), vehicle: saline 100 % of control | [7] 98 % of control and 103 % of control | dose: 200.0 mg/kg/injection, schedule: Q04DX003 (ip), vehicle: saline 101 % of control | dose: 400.0 mg/kg/injection, schedule: Q04DX003 (ip), vehicle: saline 100 % of control | dose: 600.0 mg/kg/injection, schedule: Q04DX003 (ip), vehicle: saline 101 % of control

CC1N/C(=C/c2ccccc2)C(=O)O1 (centres undefined)
inactive: [4] 106 % of control | [5] 110 % of control | [6] 105 % of control and 123 % of control | [7] 117 % of control and 96 % of control

CC1=C(C)C(=O)C(C(C)(C)CC(=O)n2cc(F)c(=O)[nH]c2=O)=C(C)C1=O
inactive: [8] 111 % of control

C=CCNC(=O)SCC
inactive: [9] 107 % of control | [10] 116 % of control

Cc1cc(=S)c2cc3c(cc2[nH]1)OCO3
inactive: [11] 107 % of control | [12] 101 % of control | [13] 103 % of control

Nc1nc(N)c(Cl)c(Nc2cccc(Cl)c2)n1
inactive: dose: 6.25 mg/kg/injection, schedule: Q01DX001 (ip), vehicle: saline with Tween-80 94 % of control

CC1CCCN2C(=O)CN(c3ccccc3)CC(=O)N12 (centres undefined)
inactive: [9] 98 % of control | [10] 103 % of control | dose: 200.0 mg/kg/injection, schedule: Q01DX005 (ip), vehicle: saline with Tween-80 99 % of control

[N-]=[N+]=NC(=O)c1cnn(Cc2ccccc2)c1N
inactive: [8] 103 % of control | dose: 200.0 mg/kg/injection, schedule: Q01DX001 (ip), vehicle: saline with Tween-80 101 % of control

OC[C@H]1N[C@H](CO)[C@@H](O)[C@H]1O
inactive: dose: 60.0 mg/kg/injection, schedule: Q01DX005 (ip), vehicle: saline 100 % of control | dose: 120.0 mg/kg/injection, schedule: Q01DX005 (ip), vehicle: saline 99 % of control | dose: 240.0 mg/kg/injection, schedule: Q01DX005 (ip), vehicle: saline 103 % of control

CC(C)(C)c1ccc(Sc2cccc3c2C(=O)c2c(Sc4cccc(F)c4)cccc2C3=O)cc1
inactive: dose: 100.0 mg/kg/injection, schedule: Q04DX002 (ip), vehicle: saline with Tween-80 99 % of control | dose: 200.0 mg/kg/injection, schedule: Q04DX002 (ip), vehicle: saline with Tween-80 89 % of control | dose: 400.0 mg/kg/injection, schedule: Q04DX002 (ip), vehicle: saline with Tween-80 95 % of control

CC(=O)OC1(C)CC2(CCCCC2)N=N1 (centres undefined)
inactive: dose: 12.5 mg/kg/injection, schedule: Q01DX009 (ip), vehicle: other 100 % of control | dose: 25.0 mg/kg/injection, schedule: Q01DX009 (ip), vehicle: other 113 % of control | dose: 50.0 mg/kg/injection, schedule: Q01DX009 (ip), vehicle: other 98 % of control | dose: 100.0 mg/kg/injection, schedule: Q01DX009 (ip), vehicle: other 111 % of control and 91 % of control | dose: 200.0 mg/kg/injection, schedule: Q01DX009 (ip), vehicle: other 107 % of control | dose: 400.0 mg/kg/injection, schedule: Q01DX009 (ip), vehicle: other 113 % of control

Nc1ccc(-c2csc(COc3ccccc3)n2)cc1
inactive: dose: 100.0 mg/kg/injection, schedule: Q01DX009 (ip), vehicle: Klucel (hydroxypropylcellulose) (HPC) 106 % of control | dose: 200.0 mg/kg/injection, schedule: Q01DX009 (ip), vehicle: Klucel (hydroxypropylcellulose) (HPC) 103 % of control

Cn1c(C2CCC(=O)N2Cc2ccccc2)n[nH]c1=S (centres undefined)
inactive: [14] 101 % of control | [15] 101 % of control | dose: 240.0 mg/kg/injection, schedule: Q01DX005 (ip), vehicle: saline with Tween-80 100 % of control

C=Cc1cncc2c1CCOC2=O
inactive: dose: 3.75 mg/kg/injection, schedule: Q01DX005 (ip), vehicle: Klucel (hydroxypropylcellulose) (HPC) 86 % of control | dose: 7.5 mg/kg/injection, schedule: Q01DX005 (ip), vehicle: Klucel (hydroxypropylcellulose) (HPC) 93 % of control | [1] 86 % of control

O=C(NC[N+]12CCO[B-]1(c1cccc(Cl)c1)OCC2)c1ccccc1O (centres undefined)
inactive: [11] 104 % of control | [12] 104 % of control | [13] 96 % of control

C=CC(C)(C)C12CC3C(=O)Nc4ccccc4C(=O)N3C1Nc1ccccc12 (centres undefined)
inactive: dose: 25.0 mg/kg/injection, schedule: Q01DX005 (ip), vehicle: distilled water + Tween-80 + alcohol 95 % of control | dose: 50.0 mg/kg/injection, schedule: Q01DX005 (ip), vehicle: distilled water + Tween-80 + alcohol 97 % of control | dose: 100.0 mg/kg/injection, schedule: Q01DX005 (ip), vehicle: distilled water + Tween-80 + alcohol 103 % of control | dose: 200.0 mg/kg/injection, schedule: Q01DX005 (ip), vehicle: distilled water + Tween-80 + alcohol 98 % of control

Clc1ccc(N=Cc2c3ccccc3cc3ccccc23)c(Cl)c1
inactive: dose: 6.25 mg/kg/injection, schedule: Q01DX009 (ip), vehicle: saline with Tween-80 101 % of control | [3] 101 % of control | [4] 93 % of control

COC(=O)c1cc(-c2cccc3ccccc23)[nH]c(=O)c1C#N
inactive: [14] 95 % of control | [15] 100 % of control
